Results: patent publication US5089479A, “Adhesion of Mycoplasma pneumoniae and Mycoplasma hominus to sulfatide” (priority 1988, dated 1992)
Entries after “also recorded” stand apart in the source; their conditions may differ.

Assays:
[1] = target: M. pneumoniae binding to sulfatide; assay: Inhibition of M. pneumoniae binding to sulfatide adsorbed on plastic; parameters: species or system Mycoplasma pneumoniae strain M129
Description: (§1) Virulent M. pneumoniae strain M129, passage 5-15, were grown and metabolically labelled with [^3 H]palmitic acid, 12-17 Ci/mole, as described by Chandler et al. in Infect. Immun. 37: 942, 1982. The organisms were passed four times through a 26 gauge needle and suspended to approximately 10^7 cpm/ml of degassed RPMI 1640 medium containing 1% bovine serum albumin and 25 mM HEPES, pH 7.3.
(§2) The binding of M. pneumoniae to purified glycolipids immobilized in microtiter plates was measured as described by Krivan et al. in Proc. Natl. Acad. Sci., op. cit. Purified glycolipids were serially diluted in 25 μl of methanol containing 0.1 μg each of the auxiliary lipids cholesterol and phosphatidylcholine. After the solutions were dried by evaporation, the wells were filled with TBS-BSA, emptied after one hour, rinsed with RPMI-BSA, and incubated with 25 μl of [^3 H]-M. pneumoniae, approximately 10^7 cpm/ml RPMI-BSA. After incubation for two hours at 37° C., unless otherwise stated, the wells were washed five times with saline and bound M. pneumoniae was quantified by scintillation counting in Aquasol. For inhibition studies, various polysaccharides were serially diluted in […] of [^3 H]-M. pneumoniae.
To obtain the results shown in FIG. 4, polysaccharides were serially diluted in 25 μl of RPMI-BSA in microtiter wells previously coated with 1 μg of purified sulfatide. Binding was determined after incubation of two hours at 37° C. with 25 μl of [^3 H]-M. pneumoniae with the indicated concentration of dextran ( .circle. ) or dextran sulfate.

[2] = test system: M. pneumoniae binding to laminin; assay: Inhibition of M. pneumoniae binding to laminin adsorbed on plastic; parameters: species or system Mycoplasma pneumoniae strain M129; conditions: for IC50: oligosaccharide concentrations as sialic acid, read-out: I.D.50, substrate laminin
Description: Glycoproteins dissolved in 0.01 M sodium phosphate buffer, pH 7.4, containing 150 mM NaCl, 1 mM CaCl2, and 0.01% NaN3 were adsorbed onto plastic polyvinylchloride […] microtiter plates by incubation for 16 hours at 4° C. The unbound proteins were removed, and the wells were filled with tris-BSA and incubated for 30 minutes at room temperature. The wells were rinsed with RPMI1640 containing 25 mM HEPES, pH 7.3, and 1% bovine serum albumin. M. pneumoniae strain M129 labelled with [^3 H]-palmitate were dispersed in RPMI-BSA by passing four times through a 26 gauge needle, and 50 μl of the suspension was applied to the wells. After incubation for 60 minutes at 37° C., the wells were washed five times with saline and the labelled M. pneumoniae bound to the proteins were quantified by scintillation counting in Aquasol.
For inhibition studies, sugars in 25 μl of RPMI-BSA were added to wells coated with 10 μg/ml laminin followed by 25 μl of [^3 H]-M. pneumoniae. Binding was determined to both laminin-coated and uncoated wells in triplicate at each inhibitor concentration and in the absence of inhibitor. In some experiments, the adsorbed proteins were pretreated with neuraminidase. After adsorption of the proteins and incubation in tris-BSA, the wells were rinsed three times with 50 mM sodium acetate, pH 5.5, containing 150 mM NaCl, 5 mM CaCl2, 1 mg/ml bovine serum albumin, and 1 mM phenylmethanesulfonyl fluoride. The wells were incubated with 0.05 units/ml neuraminidase in the same buffer or with buffer without enzyme overnight at 20° C. The wells were rinsed three times with tris-BSA, and M. pneumoniae binding was determined as described above.

[3] = test system: M. pneumoniae adhesion to coverslips; assay: Inhibition of nonspecific adhesion of M. pneumoniae to coverslips without cells; type: binding, Mycoplasma pneumoniae strain M129
Description: (§3) Adhesion of [^3 H]-M. pneumoniae to cells on glass covered slips was measured by a modification of a method previously described by Chandler et al., Infect. Immun., op. cit. WiDr human colon adenocarcinoma, ATCC CCL 218 was grown in Eagle's minimal essential medium with 10% fetal calf serum in a 5% CO2 atmosphere at 37° C. The cells were removed with trypsin and plated on 12 mm round glass coverslips in 24-well tissue culture plates and grown for three days. Control coverslips were preincubated in medium without cells. The coverslips were washed in serum-free medium, then incubated in RPMI-BSA for fifteen minutes. The medium was removed and labelled M. pneumoniae suspended in 0.5 ml of RPMI-BSA were added to each well. The plates were incubated on a rocking table for 60 minutes at 37° C. The coverslips were washed by dipping in saline six times, and the bound radioactive bacteria were determined by scintillation counting. For inhibition studies, the inhibitors were added to M. pneumoniae prior to adding the bacteria to the coverslips.
(§4) Adhesion of labelled M. pneumoniae to WiDr cells on glass cover slips was determined as described previously. For inhibition studies, dextran sulfate and 3'-sialyllactose were dissolved in RPMI-BSA and the pH was adjusted to 7.4 with NaOH. The inhibitors were added to wells containing washed cover slips with attached WiDr cells or blank cover slips preincubated in medium or tris-BSA. Labelled M. pneumoniae were added immediately and incubated with slow rocking for sixty minutes at 37° C. After the coverslips were washed by dipping six times in saline, bound M. pneumoniae were determined by scintillation counting in Aquasol. […] After washing to remove the unbound organisms, the bound mycoplasma were determined by scintillation counting. Binding to uncoated wells was 3% of the applied radioactivity.

[4] = test system: M. pneumoniae adhesion to WiDr cells; assay: Inhibition of M. pneumoniae adhesion to WiDr human colon adenocarcinoma cell monolayers; type: cell-based
Description: as §3
Because virulent strains of M. pneumoniae adhere to mammalian cells, monolayers of WiDr cells were used to determine if dextran sulfate inhibits adhesion of the organism. [^3 H] -labelled M. pneumoniae was incubated with WiDr cell monolayers attached to coverslips in triplicate with an without dextran sulfate, as shown in Table II. […] In each experiment, 10 μg/ml dextran sulfate inhibited more than 1 μg/ml, but 100 μg/ml dextran sulfate caused no further inhibition. Thus, maximal inhibition was obtained with approximately 10 μg/ml of dextran sulfate. Similar results were obtained with MRC5 lung fibroblasts where in three experiments a mean of 47% of M. pneumoniae adhesion was inhibited by dextran sulfate.
as §4
Adhesion of [^3 H]-M. pneumoniae to WiDr cells growing on 13 mm glass cover slips was determined as described above. Inhibition by dextran sulfate or 3'-sialyllactose at the indicated concentrations was calculated relative to control binding determined in RPMI/BSA without inhibitors. The results are presented as percent inhibition (mean±S.D. n=4 with n=8 for determination of control binding without inhibitor).

M. pneumoniae [5] = assay: Solid-phase binding of [3H]-M. pneumoniae to purified glycolipids immobilized in microtiter plates; parameters: species or system Mycoplasma pneumoniae strain M129
Description: as §1, §2
To obtain the results shown in FIG. 2, lipids in […] each of the auxiliary lipids cholesterol and phosphatidylcholine were evaporated in flat bottom wells of polyvinylchloride microtiter plates. The wells were blocked with 1% albumin for one hour, washed twice with RPMI-BSA, and incubated at 25° C. with 25 μl of [^3 H]-M. pneumoniae, approximately […]. After two hours, the wells were washed five times with saline, cut from the plate, and bound radioactivity was quantified in a scintillation counter. In control experiments, organisms were incubated with auxiliary lipids only to correct for nonspecific binding, typically <1% of the total radioactivity added. M. pneumoniae binding was determined in RPMI-BSA for sulfatide ( .circle. ), lactosylceramide, paragloboside, and cholesterol sulfate, ceramide trihexoside, globoside, GM1, GM2, or GM3 ( .largecircle.).
Binding of [^3 H]-M. pneumoniae was determined in RPMI-BSA for two hours at 4° C., 25° C. ( .circle. ), 37° C., and at 37° C. in BSA without RPMI (Δ).

M. pneumoniae [6] = assay: Mycoplasma overlay assay: binding of [3H]-M. pneumoniae to glycolipids on thin layer chromatograms; parameters: species or system Mycoplasma pneumoniae strain M129; conditions: for binding of M. pneumoniae to glycolipid (in words): thin layer chromatogram overlay
Description: as §1
M. pneumoniae were bound to glycolipids separated on thin-layer chromatograms as described in detail for other bacteria by Krivan et al., Proc. Natl. Acad. Sci. 85: 6157-6161, 1988, and Krivan et al., Arch. Biochem. Biophys. 260:493-496, 1988. Briefly, glycolipids were separated by thin-layer chromatography on aluminum-backed silica gel high-performance plates developed with chlooform:methanol:0.25% CaCl2 in water (60:35:8). After chromatography, the plates were coated with 0.1% polyisobutylmethacrylate, soaked in 0.05 M Tris-HCl, pH 7.6, containing […] sodium chloride, 5 mM CaCl2, 0.2 mM phenylmethane-sulfonyl fluoride, and 1% bovine serum albumin (TBS-BSA) and incubated for three hours at 25° C. with 60 μl/cm^2 of [^3 H]-labelled M. pneumoniae, approximately 10^7 cpm/ml of RPMI-BSA. The plates were gently washed five times in 0.01 M sodium phosphate, pH 7.2, containing 0.15 M sodium chloride (PBS) to remove unbound organisms, dried, and exposed for 24 hours to Ultrofilm ^3 H (2208-190) high speed film.
To obtain the results shown in FIG. 1, glycolipids were chromatographed on aluminum-backed silica gel HPTLC plates developed in chloroform/methanol/0.25% CaCl2 in water, 60:35:8. The plates were coated with plastic, soaked in Tris-BSA, and incubated for three hours at 25° C. with [^3 H]-palmitate-labelled M. pneumoniae suspended in RPMI 1640 containing 1% BSA and 25 mM HEPES, pH 7.3, as described above (Panel A), or sprayed with orcinol reagent to identify glycolipids (Panel B). Lane a, acidic glycolipid standards sulfatide (0.5 μg), GM3 (2 μg), GM2 (2 μg), GD1a (2 μg), GD1b (2 μg), GT1b (2 μg); lane b, neutral standards galactosyl ceramide (4 μg), lactosylceramide (4 μg), globotriaosylceramide (2 μg), c2(0.5 μg). and c3 (o.1 μg); lane d, seminolipid (2 μg); lane e, cholesterol 3 -sulfate (2 μg); lane f, human trachea acidic glycolipids from 100 mg wet weight […]; lane h, α2-3sialylparagloboside (2 μg); lane 1, I-active monosialylganglioside from bovine erythrocytes (2 μg).

For `CC(=O)NC1C(O)CC(OC2C(O)C(CO)OC(OC3C(CO)OC(O)C(O)C3O)C2O)(C(=O)O)OC1C(O)C(O)CO` (stereo not shown) [3'-sialyllactose], the IC50 ([1]; oligosaccharide concentrations as sialic acid, read-out: I.D.50, substrate sulfatide) was greater than 5 mM, the “inhibition of binding to sulfatide (in words)” value ([1]; sulfatide adsorbed on plastic) was “Neither laminin nor 3'-sialyllactose inhibits M. pneumoniae attachment to sulfatide; also recorded: does not inhibit binding to sulfatide” and the “inhibition of binding to laminin (in words)” value ([2]; laminin adsorbed on plastic) was “inhibited by 3'-sialyllactose at comparable concentrations; also recorded: inhibit attachment of M. pneumoniae to laminin”. The IC50 [2] was 0.3 mM, the “inhibition of non-specific adhesion to coverslips (in words)” value ([3]; coverslips preincubated in medium containing fetal calf serum) was “specifically inhibited” and the “inhibition of nonspecific binding to coverslips (in words)” value ([3]; coverslips preincubated in tris-BSA) was “does not inhibit nonspecific binding”. The “inhibition of adhesion to WiDr cells (in words)” value [4] was “partially inhibit”, the “inhibition of adhesion to WiDr cells (in words)” value ([4]; listed as 3'-Sialyllactose) was “The inhibition is dose dependent” and the control adhesion remaining ([4]; WiDr, more than ten-fold higher than ID50 for binding to laminin, 60 min) was 40%.

`CC(=O)NC1C(O)CC(OCC2OC(OC3C(CO)OC(O)C(O)C3O)C(O)C(O)C2O)(C(=O)O)OC1C(O)C(O)CO` (stereo not shown) [6'-sialyllactose] was tested, and the “Binding % of control” value ([2]; 5 mM inhibitor, laminin substrate, 60 min) was 54 % of control, the “relative inhibitory activity, binding to laminin (in words)” value ([2]; compared with 3'-sialyllactose or other fetuin oligosaccharide fractions) was “at least ten-fold less active” and the IC50 [2] was greater than 5 mM.

For “galactosyl ceramide-I^3 -sulfate [Sulfatide]”, the “binding activity at 4° C.” value (M. pneumoniae [5]; 4° C., RPMI-BSA) was “almost completely abolished; also recorded: minimal”, the “binding activity at 25° C. (relative to 37° C.)” value (M. pneumoniae [5]; 25° C., RPMI-BSA) was “about five times lower” and the “amount of sulfatide required for half-maximum binding” value (M. pneumoniae [5]; 37° C., RPMI-BSA) was “about 0.25 μg”. For the same compound, the “binding in nutrient-deficient medium” value (M. pneumoniae [5]; 37° C., Tris-BSA without RPMI) was “almost completely abolished; also recorded: bound poorly”, the “binding in RPMI medium at 37° C.” value (M. pneumoniae [5]; RPMI medium, 37° C. / physiological temperatures) was “maximal” and the “binding of M. pneumoniae to immobilized lipid (in words)” value (M. pneumoniae [5]; microtiter plate, up to 10 μg per well) was “good dose response; also recorded: bind to sulfatide adsorbed on plastic; also recorded: sensitive and dose-dependent”. For the same compound, the “Binding (ability to bind M. pneumoniae)” value (M. pneumoniae [6]; Table I, class by amount of lipid bound) was “+++ (positive binding to less than 0.5 μg)”, the “binding of M. pneumoniae to glycolipid (in words)” value (M. pneumoniae [6]; listed as galactosyl ceramide I^3 -sulfate) was “does not discriminate between galactosyl ceramide I^3 -sulfate and its unnatural 6-sulfate isomer” and the “binding of M. pneumoniae to glycolipid (in words)” value (M. pneumoniae [6]; listed as sulfatide) was “bound strongly; also recorded: bound avidly”. The “amount of glycolipid detected by M. pneumoniae overlay” value (M. pneumoniae [6]; thin layer chromatogram, lane C3) was 100 ng.
